Measured values reported in patent US12690589B2, “Herbicidal compositions comprising pyroxasulfone” (BASF SE, priority 2024, dated 2026).

Tests used:
Test in all cases: Post-emergence application in field trials, herbicidal activity (damage scale 0 to 100%)
Assay type in all cases: in vivo
[1] = test system: Digitaria sanguinalis (DIGSA); settings: stage 22, height 10-15 cm
Procedure: (§1) In the examples below, using the method of S. R. Colby (1967) “Calculating synergistic and antagonistic responses of herbicide combinations”, Weeds 15, p. 22ff., the value E, which is expected if the activity of the individual active compounds is only additive, was calculated:
(§2) [formula] • wherein • X=percent activity using active herbicide A at an application rate a; • Y=percent activity using active herbicide B (e.g. pyroxasulfone) at an application rate b; • E=expected activity (in %) by A+B at application rates a+b.
(§3) For 3-component mixtures the synergistic response was calculated as described in: Ferry, Nancy; Stanley, Bruce H.; and Armel, Gregory (2005). “DESIGN AND ANALYSIS OF BIOLOGICAL ASSAYS OF MIXTURES,” Conference on Applied Statistics in Agriculture. https://doi.org/10.4148/2475-7772.1133. According to this publication, the Colby calculation can be generalized to a third mixing partner, Z, employing the following formula: […]
(§4) If the value found experimentally is higher than the value E calculated according to Colby, a synergistic effect is present.
(§5) On field test sites, natural weed infestation or seeded weeds were treated post-emergence of the weeds.
(§6) In the field trials, the weeds were treated as indicated below.
(§7) In the following experiments, the herbicidal activity for the individual herbicidal compositions (solo and mixture applications) was assessed at the indicated days after treatment (DAT). The assessments for the damage on undesired weeds caused by the composition was carried out using a scale from 0 to 100%, compared to the untreated control plants. Here, 0 means no damage and 100 means complete destruction of the plants.
(§8) Herbicide A-1 (342 g/l) and pyroxasulfone (500 g/l) were, together with addition of 0.25 v/v % MSO (methylated seed oil) as adjuvant, formulated in 200 l/ha water as distribution medium and sprayed with commercial flat fan nozzles.
(§9) Herbicide A-1 (342 g/l), pyroxasulfone (500 g/l) and trifludimoxazin (500 g/l) were, together with addition of 0.25 v/v % MSO (methylated seed oil) as adjuvant, formulated in 200 l/ha water as distribution medium and sprayed with commercial flat fan nozzles.
(§10) Herbicide A-1 (342 g/I), pyroxasulfone (500 g/l) and glyphosate-isopropylammonium (356 g/l) were, together with addition of 0.25 v/v % MSO (methylated seed oil) as adjuvant, formulated in 200 l/ha water as distribution medium and sprayed with commercial flat fan nozzles.
(§11) Herbicide A-1 (342 g/l), pyroxasulfone (500 g/l) and glufosinate-P-ammonium (211 g/l) were, together with addition of 0.25 v/v % MSO (methylated seed oil) as adjuvant, formulated in 200 l/ha water as distribution medium and sprayed with commercial flat fan nozzles.
(§12) Herbicide A-1 (342 g/l), pyroxasulfone (500 g/l) and 2,4-D-choline (456 g/l) were, together with addition of 0.25 v/v % MSO (methylated seed oil) as adjuvant, formulated in 200 l/ha water as distribution medium and sprayed with commercial flat fan nozzles.

[2] = test system: Setaria verticillata (SETVE); settings: 7 DAT, stage 21-23, height 8-16 cm
Procedure: as §1, §2, §3, §4, §5, §6, §7, §8, §9, §10, §11, §12

Zea mays (ZEAMX) = settings: 7 DAT; stage 15-16, height 27-33 cm; g ai/ha A-1 18, B 90, C-4 12.5
Procedure: as §1, §2, §3, §4, §5, §6, §7, §8, §9, §10, §11, §12

Glycine max (GLXMA) = settings: 7 DAT; stage 12-13, height 7-11 cm; g ai/ha A-1 12.5, B 70, C-4 12.5
Procedure: as §1, §2, §3, §4, §5, §6, §7, §8, §9, §10, §11, §12

[3] = test system: Amaranthus retroflexus (AMARE); settings: stage 31-49, height 10-12 cm
Procedure: as §1, §2, §3, §4, §5, §6, §7, §8, §9, §10, §11, §12

[4] = 7 DAT, g ai/ha A-1 12.5, B 70, C-4 12.5
[5] = 42 DAT, g ai/ha A-1 12.5, B 70, C-4 12.5
[6] = 42 DAT, g ai/ha A-1 18, B 70, C-4 12.5
[7] = 42 DAT, g ai/ha A-1 18, B 90, C-4 12.5

Compound | % Herbicidal activity ([1]; 7 DAT, g ai/ha A-1 18, B 70, C-8 840) [%] | % Herbicidal activity ([1]; 7 DAT, g ai/ha A-1 18, B 90, C-8 840) [%] | % Herbicidal activity ([2]; g ai/ha A-1 18, B 70, C-8 840) [%] | % Herbicidal activity ([2]; g ai/ha A-1 18, B 90, C-8 840) [%] | % Herbicidal activity [1, 4] [%] | % Herbicidal activity ([1]; 7 DAT, g ai/ha A-1 18, B 70, C-4 12.5) [%] | % Herbicidal activity ([1]; 7 DAT, g ai/ha A-1 18, B 90, C-4 12.5) [%] | % Herbicidal activity ([1]; 21 DAT, g ai/ha A-1 12.5, B 70, C-4 12.5) [%] | % Herbicidal activity ([1]; 21 DAT, g ai/ha A-1 18, B 70, C-4 12.5) [%] | % Herbicidal activity ([1]; 21 DAT, g ai/ha A-1 18, B 90, C-4 12.5) [%] | % Herbicidal activity [1, 5] [%] | % Herbicidal activity [1, 6] [%] | % Herbicidal activity [1, 7] [%] | % Herbicidal activity (Zea mays (ZEAMX)) [%] | % Herbicidal activity (Glycine max (GLXMA)) [%] | % Herbicidal activity [3, 4] [%] | % Herbicidal activity [3, 5] [%] | % Herbicidal activity [3, 6] [%] | % Herbicidal activity [3, 7] [%] | % Herbicidal activity ([2]; g ai/ha A-1 18, B 90, C-4 12.5) [%]
CC(C)N.O=C(O)CNCP(=O)(O)O [C-8, glyphosate-isopropylammonium] | 85 | 85 | 75 | 75 | – | – | – | – | – | – | – | – | – | – | – | – | – | – | – | –
C#CCN1C(=O)C(F)(F)Oc2cc(F)c(-n3c(=O)n(C)c(=S)n(C)c3=O)cc21 [C-4, trifludimoxazin] | – | – | – | – | 30 | 30 | 30 | 30 | 30 | 30 | 20 | 20 | 20 | 40 | 75 | 80 | 80 | 80 | 80 | 40
